The subject of series [1] is adult subjects with severe hypertriglyceridemia. The series is described as follows: 12-week open label dose-escalation study in severe hypertriglyceridemia. The series is classed as in vivo, human. As for the experimental part:
The study is a 12-week interventional, open label (single blind), dose-escalation study using adult subjects (for example 30, preferably with at least one-fourth the number having Type I hyperlipoproteinemia and at least one-fourth the number having Type V hyperlipoproteinemia) with severe hypertriglyceridemia (fasting TG levels of at least 1000 mg/dL), on stable therapy (fibrates, niacin, O3FA) or refractory to such therapy. Exclusion criteria include stage 3 or 4 heart failure, uncontrolled diabetes mellitus in the month before screening, use of corticosteroids in the month before screening, estrogen treatments (contraceptive or hormone replacement) unless on a stable dose in the two months before screening, a history of pancreatic disease during the six months before screening, and current apheresis treatments. Subjects are assessed for fasting TGs and other lipids at baseline.

The subject of series [2] is dyslipidemic overweight patients (mixed dyslipidemia). The settings on record: cited from earlier work.
The target in series [3] is T1, PPARα (Homo sapiens, UniProt Q07869).
T1 sequence (Q07869 1-468): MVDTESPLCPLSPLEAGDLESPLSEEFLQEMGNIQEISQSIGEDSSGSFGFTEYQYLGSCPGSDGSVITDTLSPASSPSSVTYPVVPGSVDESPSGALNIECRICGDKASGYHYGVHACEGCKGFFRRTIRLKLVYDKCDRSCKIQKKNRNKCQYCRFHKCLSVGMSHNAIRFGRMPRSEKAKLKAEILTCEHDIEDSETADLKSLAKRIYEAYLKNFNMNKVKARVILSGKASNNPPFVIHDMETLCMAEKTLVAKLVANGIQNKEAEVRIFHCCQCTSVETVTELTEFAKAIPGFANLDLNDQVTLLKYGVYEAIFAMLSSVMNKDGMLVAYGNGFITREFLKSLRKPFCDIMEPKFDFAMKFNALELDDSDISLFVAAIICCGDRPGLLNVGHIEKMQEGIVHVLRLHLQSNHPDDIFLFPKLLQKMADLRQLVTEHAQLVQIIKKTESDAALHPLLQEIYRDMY
The series is described as follows: Specificity for PPARδ compared with PPARα. The settings on record: PPARδ versus PPARα. The series is classed as biochemical.

The test system of series [4] is hypertriglyceridemia patients. The settings on record: cited from earlier work.

A value given as a limit tells only on which side of the number the result lay.

Take `CCO[C@H](COc1ccc(C(F)(F)F)cc1)CSc1ccc(OCC(=O)O)c(C)c1` [MBX-8025, (R)-2-(4-((2-ethoxy-3-(4-(trifluoromethyl)phenoxy)propyl)thio)-2-methylphenoxy)acetic acid]: the “fasting TGs versus baseline” value in series [1] (50, 100, 200 mg/day orally, four weeks each, reduction increasing with dose) is recorded as “reduction in fasting TGs from baseline”. Moreover, the “percentage of subjects at risk of acute pancreatitis and associated adverse events” value in series [1] (subjects with SHTG) is reported as “significantly reduce”. Also, the “reduction of TGs over the total population treated” value in series [2] (50 mg/day and 100 mg/day) is given as 32%. For the same molecule, the “reduction of TGs” value in series [2] (compared to placebo, 50 or 100 mg once daily alone and in combination with ATV 20 mg, 8 weeks, P<0.05) is on record as 26-30%. The insulin sensitivity entry in series [2] (homeostatic model assessment-insulin resistance, fasting plasma glucose, insulin lowered) was “increases insulin sensitivity”. For the same molecule, in series [2] (in vivo), the “GGT and ALP” value is “lowers GGT and ALP”; the “effect on small dense LDL particles” value was “selectively depletes small dense LDL particles”; the liver enzyme levels entry is listed as “reduced liver enzyme levels”. For the same molecule, the “percentage reduction in TGs, tertile with lowest starting TG levels” value in series [2] (starting TG 125-155 mg/dL) is given as “near zero”. The “percentage reduction in TGs, tertile with highest starting TG levels” value in series [2] (starting TG 279-324 mg/dL) was “over 40%”. The “specificity compared with PPARα” value in series [3] is over 600 fold.
As to `O=C(O)c1cccnc1` [niacin, pyridine-3-carboxylic acid], in series [4] (high-dose niacin (at least 1500 mg/day)), the “decrease of TG levels” value is reported as “at least 40%”. In series [4] (human, in vivo), the “raise of HDL-C levels” value is listed as “at least 40%”.

(Values after patent US20150374649A1, “Treatment of Severe Hypertriglyceridemia” (CymaBay Therapeutics, Inc, priority 2014, published 2015).)
